Reference: PMC8963105, “A Novel Modulator of the Renin–Angiotensin System, Benzoylaconitine, Attenuates Hypertension by Targeting ACE/ACE2 in Enhancing Vasodilation and Alleviating Vascular Inflammation” (Frontiers in Pharmacology, 2022)

Experiments:
[1] = tested on: spontaneously hypertension rats (SHRs); test: chronic experiment: blood pressure, heart rate and aorta histology after 14-day oral administration in SHRs; type: in vivo, rat; settings: once a day, 14 days
Method: (§1) The SHRs were surgically implanted with a catheter via the left femoral artery, vein, and stomach after anesthetizing with 2% pentobarbital sodium (40 mg kg^−1 i.p.,). A pressure sensor was inserted into the terminal of the arterial catheter and connected to a PowerLab system (ADInstruments, New South Wales, Australia) for real-time blood pressure monitoring.
(§2) All three MDAs (BAC, BMC, and BHC) were purchased from Nature-Standard Co., Ltd. (Shanghai, China) and their purities were all over 98%. The anti-hypertensive effects of MDAs were studied in both acute and chronic experiments. The 16-week-old SHRs were used in animal experiments, and each group had six rats. In the acute experiment, drug administration was via i.v. injection. For i.v. injection, the animals were randomly assigned into four groups: vehicle (0.1% DMSO–0.9% salt solution, n = 6), low-dose group (0.6 mg kg^−1 body weight, n = 6), medium-dose group (2 mg kg^−1 body weight, n = 6), and high-dose group (6 mg kg^−1 body weight, n = 6). The drug was administered using a venous catheter. In chronic experiments, the animals were randomly assigned into five groups: vehicle (5% Tween 80–0.9% salt solution, n = 6), captopril group (5 mg kg^−1 body weight, n = 6), low-dose group (3 mg kg^−1 body weight, n = 6), medium-dose group (10 mg kg^−1 body weight, n = 6), and high-dose group (30 mg kg^−1 body weight, n = 6). Oral administration with drug or 5% Tween 80–0.9% salt solution was carried out once a day, and continued for 14 days. The drugs were dissolved in 0.1% DMSO–0.9% salt solution for intravenous injection and in 5% Tween 80–0.9% salt solution for oral administration. Blood pressure was recorded in real time.
(§3) Real-time blood pressure level was monitored after drug treatment in the acute and chronic experiments. All animals were surgically implanted with a catheter in the left femoral artery. After connection to the monitor, all animals were placed at room temperature of 25°C for 0.5–1 h and the average blood pressure value was calculated based on a real-time blood pressure curve (10 s of every 30 s).
After euthanizing the rats with sodium pentobarbital (100 mg kg^−1, i.p.) administration in combination with isoflurane inhalation, the aortas were harvested directly according to a previously described method. The aortas were fixed in 4% paraformaldehyde for 24 h and embedded in paraffin. The cross-sections (5 μm) were stained with hematoxylin and eosin or subjected to immunostaining. Immunofluorescence staining for ACE and ACE2 was performed according to the manufacturer’s instructions (Servicebio, Wuhan, China).

[2] = tested on: spontaneously hypertension rats (SHRs); test: acute experiment: real-time blood pressure after i.v. injection in SHRs; type: in vivo, rat; settings: for anti-hypertensive effect (in words): acute experiment, i.v. injection 0.6–6 mg kg^−1
Method: as §1, §2, §3

[3] = molecular target: T1, recombinant human ACE (rhACE) (Homo sapiens, UniProt P12821); test: SPR assay with rhACE; type: binding; settings: rhACE on chip, 5% DMSO–1.05× PBS
T1 construct: purchased Proteintech
T1 sequence (P12821 30-1306): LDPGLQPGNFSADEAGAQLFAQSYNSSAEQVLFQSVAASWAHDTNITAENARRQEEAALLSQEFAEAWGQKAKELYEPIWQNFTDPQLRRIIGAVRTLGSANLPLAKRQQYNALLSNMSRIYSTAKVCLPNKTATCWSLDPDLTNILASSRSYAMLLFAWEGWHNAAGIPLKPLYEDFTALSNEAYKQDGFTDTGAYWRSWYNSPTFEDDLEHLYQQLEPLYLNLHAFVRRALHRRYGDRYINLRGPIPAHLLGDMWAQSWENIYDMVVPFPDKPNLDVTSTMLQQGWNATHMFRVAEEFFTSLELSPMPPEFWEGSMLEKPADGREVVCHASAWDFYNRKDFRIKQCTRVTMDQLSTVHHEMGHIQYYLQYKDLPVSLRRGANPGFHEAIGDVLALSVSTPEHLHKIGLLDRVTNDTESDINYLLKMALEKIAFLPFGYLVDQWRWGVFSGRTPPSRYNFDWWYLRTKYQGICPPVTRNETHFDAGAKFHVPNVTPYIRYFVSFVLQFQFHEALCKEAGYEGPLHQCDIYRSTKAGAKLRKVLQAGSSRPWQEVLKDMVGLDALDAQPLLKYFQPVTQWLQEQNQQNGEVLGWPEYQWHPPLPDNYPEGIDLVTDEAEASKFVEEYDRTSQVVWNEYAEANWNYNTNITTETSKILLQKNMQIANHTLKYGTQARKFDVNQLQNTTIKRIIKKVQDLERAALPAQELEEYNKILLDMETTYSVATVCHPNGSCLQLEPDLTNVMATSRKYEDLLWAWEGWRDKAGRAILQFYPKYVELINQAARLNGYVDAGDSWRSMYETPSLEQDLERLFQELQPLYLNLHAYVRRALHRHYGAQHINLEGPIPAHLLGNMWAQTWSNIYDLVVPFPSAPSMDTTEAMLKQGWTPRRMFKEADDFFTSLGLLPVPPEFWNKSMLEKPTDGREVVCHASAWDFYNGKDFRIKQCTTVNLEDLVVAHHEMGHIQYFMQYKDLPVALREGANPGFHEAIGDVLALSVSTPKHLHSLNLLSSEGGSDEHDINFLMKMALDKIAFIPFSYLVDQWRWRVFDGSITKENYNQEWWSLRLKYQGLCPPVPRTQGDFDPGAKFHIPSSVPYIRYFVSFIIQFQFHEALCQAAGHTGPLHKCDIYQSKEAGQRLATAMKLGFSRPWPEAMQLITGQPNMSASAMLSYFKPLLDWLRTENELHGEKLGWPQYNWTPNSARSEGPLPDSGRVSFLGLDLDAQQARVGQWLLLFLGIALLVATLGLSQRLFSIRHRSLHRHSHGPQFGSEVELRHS
Method: (§4) To screen the potential targets of the MDAs in hypertension, a CVDPlatform (www.cbligand.org/CVD) was used as previously reported ([Zhang et al., 2016a]). The results of database screening were verified by virtual docking with Discovery Studio 3.5 (BIOVIA, San Diego, CA, United States) and then validated in the SPR assay. In the SPR assay, a solution of protein standards was prepared, and the concentration of recombinant human ACE (rhACE) protein and rhACE2 (Proteintech, Rosemont, IL, United States) solution was set to 500 μg ml^−1. […] Finally, the level of binding between the proteins and each molecule was determined based on the K d value.

[4] = molecular target: hrACE2 (Homo sapiens, UniProt Q9BYF1); test: SensoLyte390 ACE2 activity assay (enzyme kinetics, cell-free); type: biochemical; settings: EC50 of BMC and BHC could not be determined
Sequence of hrACE2 (Q9BYF1 18-805): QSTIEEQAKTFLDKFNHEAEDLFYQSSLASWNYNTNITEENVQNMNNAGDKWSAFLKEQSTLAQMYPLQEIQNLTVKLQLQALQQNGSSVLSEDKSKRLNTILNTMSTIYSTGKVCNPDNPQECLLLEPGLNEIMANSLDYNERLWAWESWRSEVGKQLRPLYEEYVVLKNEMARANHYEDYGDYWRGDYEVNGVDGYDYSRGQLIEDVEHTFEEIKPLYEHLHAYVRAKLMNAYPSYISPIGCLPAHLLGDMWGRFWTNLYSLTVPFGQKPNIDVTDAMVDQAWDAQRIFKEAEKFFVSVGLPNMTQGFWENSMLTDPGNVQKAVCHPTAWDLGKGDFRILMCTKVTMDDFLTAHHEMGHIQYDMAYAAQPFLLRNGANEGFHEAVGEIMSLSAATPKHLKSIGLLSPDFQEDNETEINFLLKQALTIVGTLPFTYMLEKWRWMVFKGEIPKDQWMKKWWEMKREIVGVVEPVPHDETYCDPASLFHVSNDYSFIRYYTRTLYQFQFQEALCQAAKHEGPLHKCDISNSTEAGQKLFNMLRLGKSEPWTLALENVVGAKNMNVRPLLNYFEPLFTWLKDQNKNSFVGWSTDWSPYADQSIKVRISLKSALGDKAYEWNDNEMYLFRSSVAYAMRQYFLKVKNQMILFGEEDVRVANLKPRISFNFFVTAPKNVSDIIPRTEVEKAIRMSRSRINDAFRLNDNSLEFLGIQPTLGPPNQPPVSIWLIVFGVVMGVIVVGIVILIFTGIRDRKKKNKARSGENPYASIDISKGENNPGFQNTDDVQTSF
Method: (§5) ACE and ACE2 activities were measured using the ACE activity assay kit and SensoLyte390 ACE2 activity assay kit (Anaspec, Fremont, CA, United States), respectively, according to the manufacturer’s instructions with some modifications. Briefly, rhACE solution dissolved in deionized water was used for analysis. ACE activity was measured in a reaction system with 50 μl of the sample and 50 μl of the ACE substrate solution with or without BAC (10^–4 to 10^–2 μM). ACE2 activity was assayed in the same manner as ACE activity. All assays were performed every 10 s for 30 min at 37°C using a Varioskan LUX fluorescence microplate reader (Thermo Fisher Scientific, Waltham, MA, United States). The autofluorescence value in each assay was subtracted from the measured values to generate the final results. The relative fluorescence unit of each sample was normalized to the corresponding total protein concentration, which was measured using a Pierce BCA protein assay kit (Thermo Fisher Scientific).

[5] = molecular target: T2, rhACE2 (Homo sapiens, UniProt Q9BYF1); test: SPR assay with rhACE2; type: binding; settings: rhACE2 on chip, 5% DMSO–1.05× PBS
T2 construct: purchased Proteintech
T2 sequence (Q9BYF1 18-805): as above
Method: as §4

[6] = molecular target: rhACE (Homo sapiens, UniProt P12821); test: ACE activity assay kit (enzyme kinetics, cell-free); type: biochemical
Sequence of rhACE (P12821 30-1306): as the sequence (P12821 30-1306) above
Method: as §5

C[C@H](CS)C(=O)N1CCC[C@H]1C(=O)O [captopril, reference compound] was tested, and the heart rate [1] was “Heart rate changed”.
For COCC12CN(C)C3C4C(OC)C1C3(C(OC)CC2O)C1CC2(O)C(OC)C(O)C4(O)C1C2OC(=O)c1ccccc1 (stereo not drawn) [BMC, Benzoylmesaconine], the “anti-hypertensive effect (in words)” value [2] was “observable anti-hypertensive effects”, the blood pressure reduction ([2]; i.v. injection, 6 mg kg^−1) was “approximately 20 mmHg” and the Kd [3] was 53.6 µM. The “effect on ACE2 activity (in words)” value [4] was “weaker pharmacodynamics effects”, the Kd [5] was 20.5 µM and the IC50 ([6]; 37°C, 30 min) was 0.96 µM.
With COCC12CCC(OC)C34C5CC6(O)C(OC)C(O)C(O)(C5C6OC(=O)c5ccccc5)C(C(OC)C13)C4N(C)C2 (stereo not drawn) [BHC, Benzoylhypaconitine] the “anti-hypertensive effect (in words)” value [2] was “no anti-hypertensive effects”, the Kd [3] was 139 µM and the “effect on ACE2 activity (in words)” value [4] was “weaker pharmacodynamics effects”. For the same molecule, the Kd [5] was 308 µM and the “effect on ACE activity (in words)” value ([6]; IC50 could not be determined) was “little effect”.
